Values of other authors in patent US7862843B2 (priority 2004, dated 2011).

Columns and labels:
[1] = test system: prions
[2] = test system: prions; remark: listed apart in the source

| SMILES | Inactivating the infectivity of prions [1] | Infectivity lost ([2]; 1,000 ppm available chlorine, 4-16 hour exposure) | Inactivation of prions on surfaces ([2]; full strength, 20,000-50,000 ppm) |
| --- | --- | --- | --- |
| CC(C)=O [acetone] | ineffective |  |  |
| O=C1CCO1 [beta-propiolactone] | ineffective |  |  |
| CCO [ethanol] | ineffective |  |  |
| C1CO1 [ethylene oxide] | ineffective |  |  |
| C=O [formalin] | ineffective |  |  |
| [Na+].[O-]Cl [hypochlorite, sodium hypochlorite] |  | 10^4-10^5 units of infectivity | effective |
